Laboratory results as given in patent US20220105183A1, “MICRO-NANO STRUCTURE FORMED BY SELF-ASSEMBLING ORGANIC SMALL MOLECULE COMPOUND AND USE THEREOF” (Qingdao University of Science and Technology, priority 2018, published 2022).

Key:
[1] = TEM, cryo-TEM and AFM of the self-assembled micro-nano structure; format: physicochemical
Description: Taking the self-assembled micro-nano structure of Compound II-1 as an example, II-1 was dissolved in DMSO (also can be an organic solvent such as ethanol) to prepare a 2 mM storage solution, and a small amount of storage solution was added to deionized water to prepare 20 μM working solution. Took 10 μL and dropped it on copper mesh, observed and analyzed under transmission electron microscope (TEM), cryo-transmission electron microscope. Took 10 μL and dropped it on mica plate, observed and analyzed under atomic force microscope (AFM). In FIGS. 5, A, B, C and D were TEM photographs, cryo-transmission electron microscope photographs, AFM photographs, and AFM analysis data, respectively. According to the photographs and data, II-1 was self-assembled into nanosheets with a diameter of 40-70 nm and a thickness of 3.7-3.9 nm. […]

[2] = UV absorption, fluorescence emission and quantum yield in solutions of different polarities; format: physicochemical
Description: The Compound II-1 of the present invention was prepared as a 2 mM storage solution in DMSO, and then 10 μL was added to 2 mL of solutions with different polarities (including water, dimethyl sulfoxide, N,N-dimethylformamide, methanol, ethanol, acetone, methylene chloride, acetonitrile), a UV spectrophotometer was used to test the UV absorption and to find the maximum absorption wavelength. The molar extinction coefficient of II-1 in solutions of different polarities was calculated from the ultraviolet absorption spectrum. Excited by the maximum absorption wavelength, the fluorescence emission spectrum was tested by a fluorescence spectrometer, the data was plotted with origin and the integral area was calculated. The fluorescence quantum yield φx, φx=φs(Fx/Fs)(As/Ax)(λexs/λexx)(nx/ns)^2, was calculated from the obtained data to obtain the characteristic parameters of Compound II-1 in solutions of different polarities (Table 3).

[3] = system: HeLa cells; assay: Cell photothermal experiment; format: cell-based
Description: HeLa cells were digested from the culture flask with trypsin, centrifuged, added to a DMEM medium containing 10% serum and 1% double antibody, and mixed well. 20 μL of cells were taken and stained with Compound II-1 (20 μM) for 30 minutes. After taking it out, it was centrifuged and rinsed twice with PBS. After centrifuging, 20 μL of culture medium and 20 μL of trypan blue were added. 20 μL was taken from the mixture to the cell count plate and photographed under fluorescence microscope. In the absence of laser irradiation, bright live cells were observed under the microscope, and the cell survival rate was 92%. When irradiated with 808 nm laser for 6 minutes, almost all the blue dead cells were observed under the microscope, and the cell death rate was as high as 100%. HeLa cells were cultured in 96-well plates, 10^4 cells per well, and live/dead staining after 24 h. The cells were irradiated with an 808 nm laser for 6 minutes, and the photographs were observed under a fluorescent microscope. […] It can be seen that the toxicity of the compound itself is extremely small, but its photothermal effect is particularly lethal to cancer cells, and it has bright prospects in the future clinical application of photothermal treatment of cancer. Other compounds of the present invention also have similar photothermal therapeutic effects.

[4] = system: 4T1 cells; assay: Fluorescence imaging in subcutaneous metastasis model mice; format: in vivo, nude mice; settings: 200 μL (1 mg/mL) tail vein
Description: (§1) The left side of 6-week-old female nude mice was injected subcutaneously with […] 4T1 cells to grow the tumor volume to 60 mm^3.
In the experimental group, 200 μL of II-1 (1 mg/mL) was injected into the tail vein of mice. After injection, the living imager was used to monitor at different times. […] Then they were dissected, and the heart, liver, spleen, lung, kidney and tumor were imaged by fluorescence. […] This proves that Compound II-1 targets the tumor site very well.

[5] = system: 4T1 cells; assay: Photothermal imaging and photothermal treatment in subcutaneous metastasis model mice; format: in vivo, nude mice
Description: In the experimental group, 200 μL of II-1 (300 μmoL) was injected into the mouse through the tail vein, and the tumor site of the mouse was irradiated with an 808 nm laser for 10 minutes, while taking photos with a photothermal imaging instrument.
The nude mice were divided into 4 groups. In the first group, 200 μL of II-1 was injected into the mouse through the tail vein, and the tumor site of the mouse was irradiated with an 808 nm laser for 5 minutes. In the second group, 200 μL of II-1 (300 μmol) was injected, no laser irradiation. In the third group, saline was injected and laser irradiated for 5 minutes. In the fourth group, saline was injected, no laser irradiation. The tumor volume of each group of mice was measured daily with a vernier caliper, and the recording was continued for 30 days.

[6] = system: 4T1 cells; assay: Photoacoustic imaging in subcutaneous metastasis model mice; format: in vivo, nude mice; settings: 200 μL (300 μmoL) tail vein, multispectral photoacoustic tomography
Description: as §1
200 μL II-1 (300 μmoL) was injected into the mice of the experimental group through the tail vein. Monitored with multispectral photoacoustic tomography at different times. […] With the increase of time, until 24 hours, there was a photoacoustic signal at the tumor site.

[7] = 20 μM in deionized water, TEM/AFM
[8] = Group 1: 200 μL tail vein, 808 nm laser 5 minutes
[9] = experimental group, 20 days after the experiment

With CCN1C(=CC=C2CCCC(C=CC3=C(C#N)C(=C(C#N)C#N)OC3(C)C)=C2Cl)C(C)(C)c2ccccc21 [II-1] the nanosheet diameter [1, 7] was 40-70 nm, the nanosheet thickness [1, 7] was 3.7-3.9 nm and the Morphology ([1]; micro-nano structure in aqueous solution, AFM and TEM) was “nano-sheet”. The “Φ (fluorescence quantum yield)” value ([2]; N,N-dimethylformamide) was 0.19%, the “ε*10^4” value ([2]; N,N-dimethylformamide) was 7.92 M^−1cm^−1 and the λem ([2]; N,N-dimethylformamide) was 853 nm. The λmax ([2]; N,N-dimethylformamide) was 844 nm, the “Φ (fluorescence quantum yield)” value ([2]; acetone) was 0.29% and the “ε*10^4” value ([2]; acetone) was 8.91 M^−1cm^−1. For the same compound, the λem ([2]; acetone) was 851 nm, the λmax ([2]; acetone) was 832 nm and the “Φ (fluorescence quantum yield)” value ([2]; acetonitrile) was 0.35%. The “ε*10^4” value ([2]; acetonitrile) was 9.15 M^−1cm^−1, the λem ([2]; acetonitrile) was 850 nm and the λmax ([2]; acetonitrile) was 832 nm. For the same compound, the “Φ (fluorescence quantum yield)” value ([2]; dichloromethane) was 0.35%, the “ε*10^4” value ([2]; dichloromethane) was 8.55 M^−1cm^−1 and the λem ([2]; dichloromethane) was 850 nm. For the same compound, the λmax ([2]; dichloromethane) was 834 nm, the “Φ (fluorescence quantum yield)” value ([2]; dimethyl sulfoxide) was 0.12% and the “ε*10^4” value ([2]; dimethyl sulfoxide) was 10.24 M^−1cm^−1. For the same compound, the λem ([2]; dimethyl sulfoxide) was 854 nm, the λmax ([2]; dimethyl sulfoxide) was 848 nm and the “Φ (fluorescence quantum yield)” value ([2]; ethanol) was 0.25%. For the same compound, the “ε*10^4” value ([2]; ethanol) was 10.74 M^−1cm^−1, the λem ([2]; ethanol) was 851 nm and the λmax ([2]; ethanol) was 828 nm. For the same compound, the “Φ (fluorescence quantum yield)” value ([2]; methanol) was 0.19%, the “ε*10^4” value ([2]; methanol) was 11.24 M^−1cm^−1 and the λem ([2]; methanol) was 850 nm. For the same compound, the λmax ([2]; methanol) was 830 nm, the “Φ (fluorescence quantum yield)” value ([2]; water) was 0.11% and the “ε*10^4” value ([2]; water) was 2.76 M^−1cm^−1. For the same compound, the λem ([2]; water) was 840 nm, the λmax ([2]; water) was 730 nm and the “dead cells, live/dead staining” value ([3]; HeLa in 96-well plates, 808 nm laser 6 minutes) was 100%. For the same compound, the “live/dead staining, compound only” value ([3]; HeLa in 96-well plates, only the compound added, without laser irradiation) was “the cells were all alive”, the cell death rate ([3]; HeLa, 20 μM for 30 minutes, 808 nm laser 6 minutes, trypan blue) was 100% and the cell survival rate ([3]; HeLa, 20 μM for 30 minutes, no laser irradiation, trypan blue) was 92%. For the same compound, the whole-body fluorescence distribution ([4]; after 24 hours) was “all enriched in the tumor site”, the “fluorescence of dissected heart, liver, spleen, lung, kidney and tumor” value ([4]; dissected after 24 hours) was “the fluorescence was very strong at tumor site, with weak fluorescence in the liver, and no fluorescence in other parts” and the “abnormalities in nude mice” value ([4]; within 24 hours) was “no abnormalities such as spasms and convulsions occurred”. The “temperature of tumor site under laser irradiation” value ([5]; 200 μL (300 μmoL) tail vein, 808 nm laser 10 minutes) was 60 °C, the “day on which the tumor ulcer had completely healed” value [5, 8] was 16 days and the “tumor after photothermal treatment” value [5, 8] was “the tumor disappeared after laser irradiation, and there was no recurrence within 20 days”. For the same compound, the body weight ([5]; experimental group and control group) was “no abnormal change in the body weight”, the “H&E staining of lung and liver” value [5, 9] was “no obvious damage to the lungs and liver” and the “H&E staining of tumor” value [5, 9] was “the tumor cells had undergone apoptosis”. For the same compound, the “growth of tumor volume” value ([5]; group 2: 200 μL (300 μmol), no laser irradiation (stated for control groups 2, 3 and 4 together), in 20 days) was 25 times, the “time at which a clear photoacoustic signal was found at the tumor site” value [6] was 4 h and the “time until which there was a photoacoustic signal at the tumor site” value [6] was 24 h.
